In patent US6384056B1, “Heterocyclic thioesters or ketones for vision and memory disorders” (GPI NIL Holdings, Inc., priority 1998, dated 2002):

system: not listed separately; assay: Clearance; format: in vitro ADME; conditions: Table 9 comments

First: CCC(C)(C)C(=O)C(=O)N1CCC[C@H]1C(=O)CCCCc1cccnc1 [J]
Second: CCC(C)(C)C(=O)C(=O)N1CCC[C@H]1C(=O)O [L]
The Clearance of the first is 3.5-fold lower: 1.5 µL/min for the first, 5.2 µL/min for the second.

`CN(C)C(=O)N1CCC[C@H]1C(=O)SCCCc1ccccc1` [N] and `O=C(SCCCc1ccccc1)[C@@H]1CCCN1S(=O)(=O)Cc1ccccc1` [C] are within 1.5-fold of each other in Clearance: 21.9 µL/min for the first, 31.1 µL/min for the second.

Going from `O=C(OCCCc1cccnc1)[C@@H]1CCCN1C(=S)NC1CCCCC1` [I] to `CCC(C)(C)C(=O)C(=O)N1CCCC[C@H]1C(=O)OC(CCc1ccccc1)CCc1ccccc1` [E], the Clearance rises from 8.0 µL/min to 41.8 µL/min (5.2-fold).

First: CCC(C)(C)C(=O)C(=O)N1CCCC[C@H]1C(=O)SCCC(c1ccccc1)c1ccccc1 [K]
Second: CCC(C)(C)C(=O)C(=O)N1CCC[C@H]1C(=O)SCCC(c1ccccc1)c1ccccc1 [M]
The Clearance of the first is 2.8-fold lower: 4.5 µL/min for the first, 12.5 µL/min for the second.

biological target: FKBP12 (Homo sapiens, UniProt P62942); assay: Ki test procedure: inhibition of peptidyl-prolyl isomerase (rotamase) activity, chymotrypsin-coupled assay; format: biochemical; conditions: apparent Ki
Excerpt: The inhibition of the prolyl peptidyl cis-trans isomerase activity of FKBP may be measured as an indicator of this affinity.
Inhibition of the peptidyl-prolyl isomerase (rotamase) activity of the compounds used in the inventive methods and pharmaceutical compositions can be evaluated by known methods described in the literature (Harding et al., Nature, 1989, 341:758-760; Holt et al. J. Am. Chem. Soc., 115:9923-9938).
The cis-trans isomerization of an alanine-proline bond in a model substrate, N-succinyl-Ala-Ala-Pro-Phe-p-nitroanilide, is monitored spectrophotometrically in a chymotrypsin-coupled assay, which releases para-nitroanilide from the trans form of the substrate. The inhibition of this reaction caused by the addition of different concentrations of inhibitor is determined, and the data is analyzed as a change in first-order rate constant as a function of inhibitor concentration to yield the apparent Ki values.
In a plastic cuvette are added […] of ice cold assay buffer (25 mM HEPES, pH 7.8, 100 mM NaCl), […] of FKBP (2.5 mM in 10 mM Tris-Cl pH 7.5, 100 mM NaCl, 1 mM dithiothreitol), […] of chymotrypsin (50 mg/ml in 1 mM HCl) and […] of test compound at various concentrations in dimethyl sulfoxide. The reaction is initiated by the addition of 5 mL of substrate (succinyl-Ala-Phe-Pro-Phe-para-nitroanilide 5 mg/mL in 2.35 mM LiCl in trifluoroethanol).
The absorbance at 390 nm versus time is monitored for 90 seconds using a spectrophotometer and the rate constants are determined from the absorbance versus time data files.

Chain of FKBP12 (P62942 whole entry, species assumed): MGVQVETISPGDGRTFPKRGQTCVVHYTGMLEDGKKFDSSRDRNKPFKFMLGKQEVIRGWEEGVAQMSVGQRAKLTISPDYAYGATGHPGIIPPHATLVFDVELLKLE

Compared with “2-Phenyl-1-ethyl (2S)-1-(2-cyclohexyl-1,2-dioxoethyl)-2-pyrrolidinecarbothioate [Compound 12]”, “3-(3-Fluorophenyl)propyl 1-(3,3-dimethyl-2-oxopentanoyl)-2-piperidinecarbothioate [Compound 64]” is 2.7-fold lower in Ki: 442 nM for the first, 163 nM for the second. The second binds more tightly here.

Compared with “2-Phenyl-1-ethyl (2S)-1-(1-cyclopentyl-1,2-dioxoethyl)-2-pyrrolidinecarbothioate [Compound 28]”, “4-Phenyl-1-butyl (2S)-1-(2-cyclohexyl-1,2-dioxoethyl)-2-pyrrolidinecarbothioate [Compound 33]” is 16-fold higher in Ki: 108 nM for the first, 1700 nM for the second. The first binds more tightly here.

Compared with “1,5-Diphenyl-3-pentyl 1-(3,3-dimethyl-1,2-dioxopentyl)-2-piperidinecarbothioate [Compound 40]”, `CCC(C)(C)C(=O)C(=O)N1CCC[C@H]1C(=O)CCCCc1ccccc1` [Compound 1, (2S)-3,3-dimethyl-1-[2-(5-phenylpentanoyl)pyrrolidinyl]pentane-1,2-dione] is 40-fold lower in Ki: 1230 nM for the first, 31 nM for the second.

First: 3-(1-Naphthyl)-1-propyl 1-(3,3-dimethyl-2-oxopentanoyl)-2-piperidinecarbothioate [Compound 53]
Second: 3-(1-Naphthyl)-1-propyl (2S)-1-(3,3-dimethyl-2-oxopentanoyl)-2-pyrrolidinecarbothioate [Compound 47]
The Ki of the first is 12-fold higher: 261 nM for the first, 21 nM for the second.

First: 3-Phenyl-1-propyl (2S)-1-(2-cyclohexyl-1,2-dioxoethyl)-2-pyrrolidinecarbothioate [Compound 32]
Second: CCC(C)(C)C(=O)C(=O)N1CCCC[C@H]1C(=O)SCC(c1ccccc1)c1ccccc1 [Compound 49, 2,2-Diphenylethyl (2S)-1-(3,3-dimethyl-2-oxopentanoyl)-2-piperidinecarbothicate]
The Ki of the first is 3.7-fold lower: 362 nM for the first, 1330 nM for the second.

First: 4-Phenyl-1-butyl 1-(1,2-dioxo-3,3-dimethylbutyl)-2-piperidinecarbothioate [Compound 39]
Second: 4,4-Di(para-fluorophenyl)butyl 1-(3,3-dimethyl-2-oxopentanoyl)-2-pyrrolidinecarbothioate [Compound 46]
The Ki of the first is 2.2-fold lower: 347 nM for the first, 757 nM for the second. The first binds more tightly here.

First: CCC(C)(C)C(=O)C(=O)N1CCCC1C(=O)SCc1csc2ccccc12 (stereo not shown) [Compound 11]
Second: 4-Phenylbutyl 1-(3,3-dimethyl-2-oxopentanoyl)-2-piperidinecarbothioate [Compound 59]
The Ki of the first is 3.2-fold lower: 299 nM for the first, 962 nM for the second.

Compared with “3-(3-Chlorophenyl)propyl (2S)-1-(3,3-dimethyl-2-oxopentanoyl)-2-pyrrolidinecarbothioate [Compound 54]”, “3-(para-Methoxyphenyl)-1-propyl 1-(2-phenyl-1,2-dioxoethyl)piperidine-2-carbothioate [Compound 43]” is 7-fold higher in Ki: 37 nM for the first, 259 nM for the second.

Going from `CC(C)(C)C(=O)C(=O)N1CCC[C@H]1C(=O)CCCCc1ccccc1` [Compound 3, (2S)-2-(1-oxo-5-phenyl)-pentyl-1-(3,3-dimethyl-1,2-dioxobutyl)pyrrolidine] to “4-Phenyl-1-butyl (2S)-1-(3,3-dimethyl-1,2-dioxopentyl)-2-pyrrolidinecarbothioate [Compound 34]”, the Ki falls from 85 nM to 34 nM (2.5-fold).

“3-(3-Pyridyl)-1-propyl (2S)-1-(2-cyclohexyl-1,2-dioxoethyl)-2-pyrrolidinecarbothioate [Compound 35]” and “3-(2-Fluorophenyl)propyl (2S)-1-(3,3-dimethyl-2-oxopentanoyl)-2-pyrrolidinecarbothioate [Compound 57]” are within 1.5-fold of each other in Ki: 62 nM for the first, 57 nM for the second.

Compared with “3-(2-Chlorophenyl)propyl (2S)-1-(3,3-dimethyl-2-oxopentanoyl)-2-pyrrolidinecarbothioate [Compound 61]”, “2-Phenyl-1-ethyl 1-(2-phenyl-1,2-dioxoethyl)-2-piperidinecarbothioate [Compound 14]” is 2.3-fold higher in Ki: 139 nM for the first, 313 nM for the second. The first binds more tightly here.

“3-(3-Fluorophenyl)propyl (2S)-1-(3,3-dimethyl-2-oxopentanoyl)-2-pyrrolidinecarbothioate [Compound 58]” and “3-Phenylpropyl 1-(3,3-dimethyl-2-oxopentanoyl)-2-piperidinecarbothioate [Compound 60]” are within 1.5-fold of each other in Ki: 79 nM for the first, 90 nM for the second.

First: 3-Phenyl-1-propyl 1-(3,3-dimethyl-1,2-dioxobutyl)-2-piperidinecarbothioate [Compound 29]
Second: 2-Phenyl-1-ethyl 1-(3,3-dimethyl-1,2-dioxopentyl)-2-piperidinecarbothioate [Compound 10]
The Ki of the first is 4.9-fold higher: 59 nM for the first, 12 nM for the second. The second binds more tightly here.

system: retinal ganglion cell axons; assay: protection of retinal ganglion cell axons from degeneration 14 days after optic nerve transection (RT97); format: in vivo; conditions: ± SEM
Excerpt: Efficacy of represetative compounds from different immunophilin ligand series in protecting retinal ganglion cell axons from degeneration following optic nerve transection set forth in Table 9.
Efficacy of representative compounds from different immunophilin ligand series in protecting retinal ganglion cell axons from degeneration following optic nerve transection

With `CCC(C)(C)C(=O)C(=O)N1CCC[C@H]1C(=O)CCCCc1cccnc1` [J] the “RT 97 + RGC axon density 14 days after ON transaction (36 ON axons rescued)” value (“RT 97 + RGC axon density 14 days” below) was 15.8% ±4.8% SEM.
With `CCC(C)(C)C(=O)C(=O)N1CCC[C@H]1C(=O)O` [L] the “RT 97 + RGC axon density 14 days” value was 7.8% ±3.0% SEM.
For `CCC(C)(C)C(=O)C(=O)N1CCCC[C@H]1C(=O)O` [G], the “RT 97 + RGC axon density 14 days” value was 34.0% ±4.8% SEM.
In the case of `O=C(OCCCc1ccccc1)[C@@H]1CCCCN1S(=O)(=O)Cc1ccccc1` [D], the “RT 97 + RGC axon density 14 days” value is reported as 58.4% ±6.4% SEM.
In the case of `O=C(SCCCc1ccccc1)[C@@H]1CCCN1S(=O)(=O)Cc1ccccc1` [C], the “RT 97 + RGC axon density 14 days” value is reported as 60.4% ±3.1% SEM.
With `O=C(OCCCc1cccnc1)[C@@H]1CCCN1C(=S)NC1CCCCC1` [I] the “RT 97 + RGC axon density 14 days” value was 23.8% ±5.3 SEM.
In the case of `CCC(C)(C)C(=O)C(=O)N1CCCC[C@H]1C(=O)SCCC(c1ccccc1)c1ccccc1` [K], the “RT 97 + RGC axon density 14 days” value is reported as 13.0% ±4.2% SEM.
With `CCC(C)(C)C(=O)C(=O)N1CCCC[C@H]1C(=O)OC(CCc1ccccc1)CCc1ccccc1` [E] the “RT 97 + RGC axon density 14 days” value was 56.6% ±9.4% SEM.
With `CCC(C)(C)C(=O)C(=O)N1CCS[C@H]1C(=O)OCCCc1cccnc1` [F] the “RT 97 + RGC axon density 14 days” value was 55.1% ±5.9% SEM.
With `CCC(C)(C)C(=O)C(=O)N1CCCC[C@H]1C(N)=O` [H] the “RT 97 + RGC axon density 14 days” value was 30.3% ±8.0% SEM.
With `O=C(SCCCc1ccccc1)[C@@H]1CCCN1C(=O)NC12CC3CC(CC(C3)C1)C2` [B] the “RT 97 + RGC axon density 14 days” value was 100.0% ±5.2% SEM.

For `CCC(C)(C)C(=O)C(=O)N1CCC[C@H]1C(=O)SCCC(c1ccccc1)c1ccccc1` [M], the “RT 97 + RGC axon density 14 days” value was −6.3% +3.9% SEM.
